Source: patent US8637496B2, “Compounds having a monogalactosyldiacylglycerol synthase inhibitory activity as herbicide or algaecide, herbicide and algaecide compositions” (Commissariat a l'Energie Atomique, priority 2007, dated 2014)
pIC50: −log10 of the molar value. Structures can show the parent of a compound that is named as a salt.

Target: T1, MGDG synthase in isolated spinach chloroplast envelope membranes (Spinacia oleracea, UniProt Q9SM44)
T1 construct: envelope membranes purified from the lysate by sucrose centrifugation gradient; from tissue; host or cells: envelope membranes of chloroplasts from spinach leaves
T1 sequence (Q9SM44 99-522): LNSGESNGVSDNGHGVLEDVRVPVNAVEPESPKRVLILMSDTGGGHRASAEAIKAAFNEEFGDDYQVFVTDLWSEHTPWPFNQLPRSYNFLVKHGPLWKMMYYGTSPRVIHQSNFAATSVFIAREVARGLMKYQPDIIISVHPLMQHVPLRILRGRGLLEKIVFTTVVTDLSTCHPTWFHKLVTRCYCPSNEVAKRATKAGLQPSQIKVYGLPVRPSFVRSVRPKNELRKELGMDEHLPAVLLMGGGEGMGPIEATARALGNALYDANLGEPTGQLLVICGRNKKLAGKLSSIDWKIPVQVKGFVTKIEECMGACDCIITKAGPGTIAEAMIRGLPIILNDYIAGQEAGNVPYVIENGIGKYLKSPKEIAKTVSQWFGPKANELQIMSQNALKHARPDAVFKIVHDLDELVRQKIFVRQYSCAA
Experiment: MGDG synthase activity in envelope membrane fractions isolated from spinach chloroplasts
Assay type: biochemical
Conditions: Table 1, obtained in the same manner as FIG. 4; read-out: Inhibitory effect on MGDG synthesis in isolated spinach chloroplast envelope membranes
Excerpt: All the operations have been carried out as described in the article by Maréchal, E. et al., J. Biol. Chem., 1995, 270, 5714-5722. Crude chloroplasts were obtained from 3-4 kg of spinach leaves and purified by isopycnic centrifugation using Percoll gradients. Purified intact chloroplasts have then been lysed in hypotonic medium and envelope membranes purified from the lysate by sucrose centrifugation gradient as described in the article by Douce, R. and Joyard, J., (1982) in Methods in Chloroplast Molecular Biology (Edelman, M., Hallick R and Chua N H eds), pp 239-256, Elsevier Science Publishers B.V. Amsterdam.
MGDG synthase activity was assayed as described in the article by Maréchal et al. (1995).

Row | SMILES | pIC50
1 | CC(CCOC(=O)N1CCC(n2c(=O)[nH]c3ccccc32)CC1)N(Cc1ccccc1)Cc1ccccc1 (stereo not shown) [Compound 32, 3-(dibenzylamino)butyl 4-(1,2-dihydro-2-oxobenzo[d]imidazol-3-yl)piperidine-1-carboxylate] | 4.46
2 | O=C(OCCN(Cc1ccccc1)Cc1cccc(OCc2ccccc2)c1)N1CCC(n2c(=O)[nH]c3ccccc32)CC1 [Compound 81, 2-(benzyl(3-(benzyloxy)benzyl)amino)ethyl 4-(2-oxo-2,3-dihydro-1H-benzo[d]imidazol-1-yl)piperidine-1-carboxylate] | 5.10
3 | O=C(OCC(Cc1ccccc1)NCc1ccccc1)N1CCC(n2c(=O)[nH]c3ccccc32)CC1 (stereo not shown) [Compound 88, 2-(benzylamino)-3-phenylpropyl 4-(2-oxo-2,3-dihydro-1H-benzo[d]imidazol-1-yl)piperidine-1-carboxylate] | 4.22
4 | C[C@@H](COC(=O)N1CCC(n2c(=O)[nH]c3ccccc32)CC1)N(Cc1ccccc1)Cc1cccc(OCc2ccccc2)c1 [Compound 60, (S)-2-(benzyl(3-(benzyloxy)benzyl)amino)propyl 4-(2-oxo-2,3-dihydro-1H-benzo[d]imidazol-1-yl)piperidine-1-carboxylate hydrochloride] | 4.92
5 | CN(CCOC(=O)N1CCC(n2c(=O)[nH]c3ccccc32)CC1)Cc1ccccc1 [Compound 9, 2-(N-benzyl-N-methylamino)ethyl 4-(1,2-dihydro-2-oxobenzo[d]imidazol-3-yl)piperidine-1-carboxylate] | 3.30 to 4.00
6 | COc1cccc(CN(CCCOC(=O)N2CCC(n3c(=O)[nH]c4ccccc43)CC2)Cc2ccccc2)c1 [Compound 68, 3-(benzyl(3-methoxybenzyl)amino)propyl 4-(2-oxo-2,3-dihydro-1H-benzo[d]imidazol-1-yl)piperidine-1-carboxylate hydrochloride] | 4.10
7 | O=C(OCCN(Cc1ccccc1)Cc1ccnc2ccccc12)N1CCC(n2c(=O)[nH]c3ccccc32)CC1 [Compound 57, 2-(benzyl(quinolin-4-ylmethyl)amino)ethyl 4-(2-oxo-2,3-dihydro-1H-benzo[d]imidazol-1-yl)piperidine-1-carboxylate hydrochloride] | 4.12
8 | COc1ccc(CN(CCCOC(=O)N2CCC(n3c(=O)[nH]c4ccccc43)CC2)Cc2ccccc2)cc1 [Compound 42, 3-(benzyl(4-methoxybenzyl)amino)propyl 4-(2-oxo-2,3-dihydro-1H-benzo[d]imidazol-1-yl)piperidine-1-carboxylate hydrochloride] | 4.30
9 | C[C@@H](COC(=O)N1CCC(n2c(=O)[nH]c3ccccc32)CC1)N(Cc1ccccc1)Cc1cccc2ccccc12 [Compound 62, (S)-2-(benzyl(naphthalen-1-ylmethyl)amino)propyl 4-(2-oxo-2,3-dihydro-1H-benzo[d]imidazol-1-yl)piperidine-1-carboxylate hydrochloride] | 4.60
10 | CC(C)(C)OC(=O)N(CCOC(=O)N1CCC(n2c(=O)[nH]c3ccccc32)CC1)Cc1ccccc1 [Compound 65, 2-(benzyl(tert-butoxycarbonyl)amino)ethyl 4-(2-oxo-2,3-dihydro-1H-benzo[d]imidazol-1-yl)piperidine-1-carboxylate] | 4.92
11 | C[C@@H](COC(=O)N1CCC(n2c(=O)[nH]c3ccccc32)CC1)N(Cc1ccccc1)Cc1ccccn1 [Compound 64, (S)-2-(benzyl(pyridin-2-ylmethyl)amino)propyl 4-(2-oxo-2,3-dihydro-1H-benzo[d]imidazol-1-yl)piperidine-1-carboxylate hydrochloride] | 4.46
12 | O=C(OCCCN(Cc1ccccc1)Cc1ccoc1)N1CCC(n2c(=O)[nH]c3ccccc32)CC1 [Compound 80, 3-(benzyl(furan-3-ylmethyl)amino)propyl 4-(2-oxo-2,3-dihydro-1H-benzo[d]imidazol-1-yl)piperidine-1-carboxylate] | 4.30
13 | C[C@@H](COC(=O)N1CCC(n2c(=O)[nH]c3ncccc32)CC1)N(Cc1ccccc1)Cc1ccccc1 [Compound 2, (S)-2-(dibenzylamino)propyl 4-(2,3-dihydro-2-oxoimidazo[4,5-b]pyridin-1-yl)piperidine-1-carboxylate] | 3.30 to 4.00
14 | C[C@@H](COC(=O)Nc1ccc(-n2c(=O)[nH]c3ccccc32)cc1)N(Cc1ccccc1)Cc1ccccc1 [Compound 27, 2-(dibenzylamino)propyl 4-(1,2-dihydro-2-oxobenzo[d]imidazol-3-yl)phenylcarbamate] | 4.35
15 | O=C(CCCN(Cc1ccccc1)Cc1ccccc1)N1CCC(n2c(=O)[nH]c3ccccc32)CC1 [Compound 24, 1-[1-(4-Dibenzylamino-butyryl)-piperidin-4-yl]-1,3-dihydro-benzoimidazol-2-one] | 4.60
16 | O=C(OCCCN(Cc1ccccc1)Cc1ccccn1)N1CCC(n2c(=O)[nH]c3ccccc32)CC1 [Compound 59, 3-(benzyl(pyridin-2-ylmethyl)amino)propyl 4-(2-oxo-2,3-dihydro-1H-benzo[d]imidazol-1-yl)piperidine-1-carboxylate hydrochloride] | 4.82
17 | O=C(OC[C@H](c1ccccc1)N(Cc1ccccc1)Cc1ccccc1)N1CCC(n2c(=O)[nH]c3ccccc32)CC1 [Compound 34, (S)-2-(dibenzylamino)-2-phenylethyl 4-(1,2-dihydro-2-oxobenzo[d]imidazol-3-yl)piperidine-1-carboxylate] | 4.40
18 | O=C(OCCC(c1ccccc1)c1ccccc1)N1CCC(n2c(=O)[nH]c3ccccc32)CC1 [Compound 12, 3,3-diphenylpropyl 4-(1,2-dihydro-2-oxobenzo[d]imidazol-3-yl)piperidine-1-carboxylate] | 4.35

Second part, the compound after the results:

Row | pIC50 | SMILES
19 | 4.22 | O=C(OCCCN(Cc1ccccc1)Cc1cccc2ccccc12)N1CCC(n2c(=O)[nH]c3ccccc32)CC1 [Compound 70, 3-(benzyl(naphthalen-1-ylmethyl)amino)propyl 4-(2-oxo-2,3-dihydro-1H-benzo[d]imidazol-1-yl)piperidine-1-carboxylate hydrochloride]
20 | 4.30 | O=C(OCCCN(Cc1ccccc1)Cc1cccs1)N1CCC(n2c(=O)[nH]c3ccccc32)CC1 [Compound 66, 3-(benzyl(thiophen-2-ylmethyl)amino)propyl 4-(2-oxo-2,3-dihydro-1H-benzo[d]imidazol-1-yl)piperidine-1-carboxylate hydrochloride]
21 | 4.22 | C[C@@H](COC(=O)N1CCC(n2c(=O)[nH]c3ccccc32)CC1)N(Cc1ccccc1)Cc1ccnc2ccccc12 [Compound 53, (S)-2-(benzyl(quinolin-4-ylmethyl)amino)propyl 4-(2-oxo-2,3-dihydro-1H-benzo[d]imidazol-1-yl)piperidine-1-carboxylate hydrochloride]
22 | 4.77 | O=C(OCCCN(Cc1ccccc1)Cc1cccnc1)N1CCC(n2c(=O)[nH]c3ccccc32)CC1 [Compound 58, 3-(benzyl(pyridin-3-ylmethyl)amino)propyl 4-(2-oxo-2,3-dihydro-1H-benzo[d]imidazol-1-yl)piperidine-1-carboxylate hydrochloride]
23 | 4.40 | CC(COC(=O)N1CCC(n2c(=O)[nH]c3ccccc32)CC1)N(CCCOCc1ccccc1)Cc1ccccc1 (stereo not shown) [Compound 89, 2-(benzyl(3-(benzyloxy)propyl)amino)propyl 4-(2-oxo-2,3-dihydro-1H-benzo[d]imidazol-1-yl)piperidine-1-carboxylate]
24 | 4.92 | O=C(OCCCN(Cc1ccccc1)Cc1ccc(F)cc1)N1CCC(n2c(=O)[nH]c3ccccc32)CC1 [Compound 67, 3-(benzyl(4-fluorobenzyl)amino)propyl 4-(2-oxo-2,3-dihydro-1H-benzo[d]imidazol-1-yl)piperidine-1-carboxylate hydrochloride]
25 | 4.30 | O=C(OCCCN(Cc1ccccc1)Cc1ccnc2ccccc12)N1CCC(n2c(=O)[nH]c3ccccc32)CC1 [Compound 71, 3-(benzyl(quinolin-4-ylmethyl)amino)propyl 4-(2-oxo-2,3-dihydro-1H-benzo[d]imidazol-1-yl)piperidine-1-carboxylate hydrochloride]
26 | 5.10 | O=C(OCCN(Cc1ccccc1)Cc1ccc(Cl)cc1)N1CCC(n2c(=O)[nH]c3ccccc32)CC1 [Compound 74, 2-(benzyl(4-chlorobenzyl)amino)ethyl 4-(2-oxo-2,3-dihydro-1H-benzo[d]imidazol-1-yl)piperidine-1-carboxylate]
27 | 4.30 | C[C@@H](COC(=O)N1CCC(n2c(=O)[nH]c3ccccc32)CC1)N(Cc1ccccc1)Cc1ccc([N+](=O)[O-])cc1 [Compound 36, (S)-2-(benzyl(4-nitrobenzyl)amino)propyl 4-(2-oxo-2,3-dihydro-1H-benzo[d]imidazol-1-yl)piperidine-1-carboxylate hydrochloride]
28 | 4.92 | O=C(OCCCN(Cc1ccccc1)Cc1ccc(Cl)cc1)N1CCC(n2c(=O)[nH]c3ccccc32)CC1 [Compound 83, 3-(benzyl(4-chlorobenzyl)amino)propyl 4-(2-oxo-2,3-dihydro-1H-benzo[d]imidazol-1-yl)piperidine-1-carboxylate]
